This note sets out measurements from US11613527B2, “Enzyme inhibitors” (KalVista Pharmaceuticals Limited, priority 2019, dated 2023).

What all share (format): biochemical
The target in assay [1] is Human KLK1 (Homo sapiens (Human), UniProt P06870). The assay is described as follows: Determination of the IC50 for KLK1 (fluorogenic substrate H-DVal-Leu-Arg-AFC). Here is the method: Selected compounds were further screened for inhibitory activity against the related enzyme KLK1. The ability of the compounds of formula (I) to inhibit KLK1 may be determined using the following biological assay:
Determination of the IC50 for KLK1
(§1) KLK1 inhibitory activity in vitro was determined using standard published methods (see e.g. Johansen et al., Int. J. Tiss. Reac. 1986, 8, 185; Shori et al., Biochem. Pharmacol., 1992, 43, 1209; Sturzebecher et al., Biol. Chem. Hoppe-Seyler, 1992, 373, 1025). Human KLK1 (Callbiochem) was incubated at 25° C. with the fluorogenic substrate H-DVal-Leu-Arg-AFC and various concentrations of the test compound. Residual enzyme activity (initial rate of reaction) was determined by measuring the change in optical absorbance at 410 nm and the IC50 value for the test compound was determined.

Assay [2] addresses Human plasma kallikrein (Homo sapiens (Human), UniProt P03952). Description: Determination of the IC50 for plasma kallikrein (fluorogenic substrate H-DPro-Phe-Arg-AFC). To be noted: class symbols A-D, read-out: IC50 (human PKal). Here is the method: The ability of the compounds of formula (I) to inhibit plasma kallikrein may be determined using the following biological assay:
Determination of the IC50 for Plasma Kallikrein
as §1, with “Plasma kallikrein” for “KLK1”, “plasma kallikrein (Protogen)” for “KLK1 (Callbiochem)”, “H-DPro-Phe-Arg-AFC” for “H-DVal-Leu-Arg-AFC”

Assay [3] deals with Human FXIa (Homo sapiens (Human), UniProt P03951). The assay is described as follows: Determination of the % inhibition for FXIa (fluorogenic substrate Z-Gly-Pro-Arg-AFC; 40 μM or IC50). The protocol: Selected compounds were further screened for inhibitory activity against the related enzyme FXIa. The ability of the compounds of formula (I) to inhibit FXIa may be determined using the following biological assay:
Determination of the % Inhibition for FXIa
FXIa inhibitory activity in vitro was determined using standard published methods (see e.g. Johansen et al., Int. J. Tiss. Reac. 1986, 8, 185; Shori et al., Biochem. Pharmacol., 1992, 43, 1209; Sturzebecher et al., Biol. Chem. Hoppe-Seyler, 1992, 373, 1025). Human FXIa (Enzyme Research Laboratories) was incubated at 25° C. with the fluorogenic substrate Z-Gly-Pro-Arg-AFC and 40 μM of the test compound (or alternatively at various concentrations of the test compound in order to determine IC50). Residual enzyme activity (initial rate of reaction) was determined by measuring the change in optical absorbance at 410 nm and the IC50 value for the test compound was determined.

Human KLK1, sequence (P06870 25-262): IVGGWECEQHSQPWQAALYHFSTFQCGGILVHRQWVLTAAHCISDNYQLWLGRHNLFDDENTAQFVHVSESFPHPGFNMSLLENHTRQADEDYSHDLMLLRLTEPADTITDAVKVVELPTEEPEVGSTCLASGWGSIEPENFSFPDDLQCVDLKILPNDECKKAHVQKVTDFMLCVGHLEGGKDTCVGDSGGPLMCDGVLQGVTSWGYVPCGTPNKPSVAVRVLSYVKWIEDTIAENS
Human plasma kallikrein, sequence (P03952 391-638): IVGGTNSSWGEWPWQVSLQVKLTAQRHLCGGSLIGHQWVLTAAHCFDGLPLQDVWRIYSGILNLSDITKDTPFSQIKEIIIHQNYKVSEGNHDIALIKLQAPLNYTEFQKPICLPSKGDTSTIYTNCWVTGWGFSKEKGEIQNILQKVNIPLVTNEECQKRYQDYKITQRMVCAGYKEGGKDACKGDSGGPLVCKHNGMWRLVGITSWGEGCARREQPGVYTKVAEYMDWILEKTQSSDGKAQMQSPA
Human plasma kallikrein, sequence (P03952 20-390 partner): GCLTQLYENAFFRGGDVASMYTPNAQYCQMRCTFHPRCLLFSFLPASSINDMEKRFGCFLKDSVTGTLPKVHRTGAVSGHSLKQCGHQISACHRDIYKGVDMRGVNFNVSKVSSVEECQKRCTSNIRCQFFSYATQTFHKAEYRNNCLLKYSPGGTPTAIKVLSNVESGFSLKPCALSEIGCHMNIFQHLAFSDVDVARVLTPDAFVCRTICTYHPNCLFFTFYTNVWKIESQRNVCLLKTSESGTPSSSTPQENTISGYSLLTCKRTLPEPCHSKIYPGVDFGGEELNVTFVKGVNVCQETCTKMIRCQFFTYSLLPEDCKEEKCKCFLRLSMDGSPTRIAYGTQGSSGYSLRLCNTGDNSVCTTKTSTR
Human FXIa, sequence (P03951 388-625): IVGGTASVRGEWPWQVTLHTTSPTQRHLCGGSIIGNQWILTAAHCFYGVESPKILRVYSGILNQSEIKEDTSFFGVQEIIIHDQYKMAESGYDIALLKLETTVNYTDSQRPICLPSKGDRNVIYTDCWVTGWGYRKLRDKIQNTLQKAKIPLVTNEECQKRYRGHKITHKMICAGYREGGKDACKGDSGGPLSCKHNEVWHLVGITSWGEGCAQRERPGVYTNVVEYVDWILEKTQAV
Human FXIa, sequence (P03951 19-387 partner): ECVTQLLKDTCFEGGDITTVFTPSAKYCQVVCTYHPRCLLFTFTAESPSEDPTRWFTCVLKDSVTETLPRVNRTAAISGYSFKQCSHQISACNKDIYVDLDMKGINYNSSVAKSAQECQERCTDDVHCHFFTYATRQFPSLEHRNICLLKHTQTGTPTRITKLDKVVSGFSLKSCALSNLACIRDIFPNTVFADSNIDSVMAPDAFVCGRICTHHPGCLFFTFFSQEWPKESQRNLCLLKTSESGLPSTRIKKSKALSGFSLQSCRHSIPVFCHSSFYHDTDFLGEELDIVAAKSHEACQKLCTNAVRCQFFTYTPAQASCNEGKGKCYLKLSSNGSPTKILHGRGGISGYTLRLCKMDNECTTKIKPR

For `COCc1nn(Cc2ccc3c(c2Cl)CCN(C)C3)cc1C(=O)NCc1c(-n2cc(C)nn2)ccc(OC)c1F` [Example 104, 1-[(5-chloro-2-methyl-3,4-dihydro-1H-isoquinolin-6-yl)methyl]-N-{[2-fluoro-3-methoxy-6-(4-methyl-1,2,3-triazol-1-yl)phenyl]methyl}-3-(methoxymethyl)pyrazole-4-carboxamide], the IC50 (usually the midpoint of a concentration-inhibition curve) in assay [1] was more than 40 µM; in assay [2], 30 to 100 nM; in assay [3] it was more than 40 µM.

As to `COc1ccc(-n2cc(C)nn2)c(CNC(=O)c2cn(Cc3ccc4c(c3)CN(C(C)C)C4)c(C3CC3)n2)c1F` [Example 150, 2-cyclopropyl-N-{[2-fluoro-3-methoxy-6-(4-methyl-1,2,3-triazol-1-yl)phenyl]methyl}-1-[(2-isopropyl-1,3-dihydroisoindol-5-yl)methyl]imidazole-4-carboxamide], the IC50 is more than 40 µM in assay [1], 10 to 30 nM in assay [2] and more than 40 µM in assay [3].

`CCN1Cc2ccc(Cn3cc(C(=O)NCc4c(-n5cc(C)nn5)ccc(OC)c4F)c(COC)n3)cc2C1` [Example 56, 1-[(2-ethyl-1,3-dihydroisoindol-5-yl)methyl]-N-{[2-fluoro-3-methoxy-6-(4-methyl-1,2,3-triazol-1-yl)phenyl]methyl}-3-(methoxymethyl)pyrazole-4-carboxamide]: the IC50 in assay [1] was more than 40 µM; in assay [2] it was less than 10 nM; in assay [3], 16.3 µM.

For the molecule `COCc1nn(Cc2ccc3c(c2)CN(C(C)C)C3)cc1C(=O)NCc1c(-n2cnc(C(F)(F)F)n2)ccc(OC)c1F` [Example 60, N-({2-fluoro-3-methoxy-6-[3-(trifluoromethyl)-1,2,4-triazol-1-yl]phenyl}methyl)-1-[(2-isopropyl-1,3-dihydroisoindol-5-yl)methyl]-3-(methoxymethyl)pyrazole-4-carboxamide], the figures for the IC50 in assay [1], in assay [2] and in assay [3] were more than 40 µM, less than 10 nM and more than 40 µM, respectively.

Turning to `COCc1nn(Cc2ccc3c(c2)CN(C)CC3)cc1C(=O)NCc1c(-n2cnc(C(F)F)n2)ccc(Cl)c1F` [Example 155, N-({3-chloro-6-[3-(difluoromethyl)-1,2,4-triazol-1-yl]-2-fluorophenyl}methyl)-3-(methoxymethyl)-1-[(2-methyl-3,4-dihydro-1H-isoquinolin-7-yl)methyl]pyrazole-4-carboxamide], the IC50 in assay [1] was more than 40 µM; in assay [2], 100 to 1000 nM; in assay [3] it was more than 40 µM.

As to `COCc1nn(Cc2cc(F)cc3c2CCN(C)C3)cc1C(=O)NCc1c(-n2cc(C)nn2)ccc(OC)c1F` [Example 103, 1-[(7-fluoro-2-methyl-3,4-dihydro-1H-isoquinolin-5-yl)methyl]-N-{[2-fluoro-3-methoxy-6-(4-methyl-1,2,3-triazol-1-yl)phenyl]methyl}-3-(methoxymethyl)pyrazole-4-carboxamide], the IC50 in assay [1] was more than 40 µM; in assay [2] it was 30 to 100 nM; in assay [3] it was more than 40 µM.

As to `COCc1nn(Cc2ccc3c(c2)CNCCO3)cc1C(=O)NCc1c(-n2cc(C)nn2)ccc(OC)c1F` [Example 110, N-{[2-fluoro-3-methoxy-6-(4-methyl-1,2,3-triazol-1-yl)phenyl]methyl}-3-(methoxymethyl)-1-(2,3,4,5-tetrahydro-1,4-benzoxazepin-7-ylmethyl)pyrazole-4-carboxamide], the half-maximal inhibitory concentration (IC50) in assay [1] is more than 40 µM; in assay [2], 100 to 1000 nM; in assay [3], more than 40 µM.

Consider `COCc1nn(Cc2ccc3c(c2)C2CCCN2CC3)cc1C(=O)NCc1c(-n2cc(C)nn2)ccc(OC)c1F` (stereo not drawn) [Example 120, 1-{1H,2H,3H,5H,6H,10bH-pyrrolo[2,1-a]isoquinolin-9-ylmethyl}-N-{[2-fluoro-3-methoxy-6-(4-methyl-1,2,3-triazol-1-yl)phenyl]methyl}-3-(methoxymethyl)pyrazole-4-carboxamide], for which the IC50 was more than 40 µM in assay [1], less than 10 nM in assay [2] and more than 40 µM in assay [3].

In the case of `COCc1nn(Cc2ccc3c(c2)CCN(C2CC2)C3)cc1C(=O)NCc1c(-n2ccc(C#N)n2)ccc(OC)c1F` [Example 49, N-{[6-(3-cyanopyrazol-1-yl)-2-fluoro-3-methoxyphenyl]methyl}-1-[(2-cyclopropyl-3,4-dihydro-1H-isoquinolin-6-yl)methyl]-3-(methoxymethyl)pyrazole-4-carboxamide], the figures for the IC50 in assay [1], in assay [2] and in assay [3] were more than 40 µM, 10 to 30 nM and more than 40 µM, respectively.

In the case of `COCc1nn(Cc2ccc3c(c2)CN(C)C3)cc1C(=O)NCc1c(-n2cnc(C(F)F)n2)ccc(OC)c1F` [Example 57, N-({6-[3-(difluoromethyl)-1,2,4-triazol-1-yl]-2-fluoro-3-methoxyphenyl}methyl)-3-(methoxymethyl)-1-[(2-methyl-1,3-dihydroisoindol-5-yl)methyl]pyrazole-4-carboxamide], the IC50 was more than 40 µM in assay [1], less than 10 nM in assay [2] and 28.8 µM in assay [3].

On to `COc1ccc(-n2cnc(C(F)(F)F)n2)c(CNC(=O)c2cnn(Cc3ccc4c(c3)CN(C)CC4)c2)c1F` [Example 31, N-({2-fluoro-3-methoxy-6-[3-(trifluoromethyl)-1,2,4-triazol-1-yl]phenyl}methyl)-1-[(2-methyl-3,4-dihydro-1H-isoquinolin-7-yl)methyl]pyrazole-4-carboxamide], for which the IC50 was more than 40 µM in assay [1], less than 10 nM in assay [2] and 34.6 µM in assay [3].

In the case of `COCc1nn(Cc2ccc3c(c2)CN(C(C)C)CC3)cc1C(=O)NCc1c(-n2cc(C)nn2)ccc(OC)c1F` [Example 17, N-{[2-fluoro-3-methoxy-6-(4-methyl-1,2,3-triazol-1-yl)phenyl]methyl}-1-[(2-isopropyl-3,4-dihydro-1H-isoquinolin-7-yl)methyl]-3-(methoxymethyl)pyrazole-4-carboxamide], the results for the IC50 in assay [1], in assay [2] and in assay [3] were more than 40 µM, less than 10 nM and more than 40 µM, respectively.

`COCc1nn(Cc2ccc3c(c2)CN(C)CC3)cc1C(=O)NCc1c(-n2cncn2)ccc(OC)c1F` [Example 7, N-{[2-fluoro-3-methoxy-6-(1,2,4-triazol-1-yl)phenyl]methyl}-3-(methoxymethyl)-1-[(2-methyl-3,4-dihydro-1H-isoquinolin-7-yl)methyl]pyrazole-4-carboxamide]: the IC50 in assay [1] was more than 40 µM; in assay [2], less than 10 nM; in assay [3], more than 40 µM.

With `COCc1nn(Cc2ccc3c(c2)CN(C)C3)cc1C(=O)NCc1c(-n2cnc(C(F)(F)F)n2)ccc(OC)c1F` [Example 58, N-({2-fluoro-3-methoxy-6-[3-(trifluoromethyl)-1,2,4-triazol-1-yl]phenyl}methyl)-3-(methoxymethyl)-1-[(2-methyl-1,3-dihydroisoindol-5-yl)methyl]pyrazole-4-carboxamide], the values for the IC50 in assay [1], in assay [2] and in assay [3] were more than 40 µM, less than 10 nM and 17 µM, respectively.

As to `COc1ccc(-n2cc(C)nn2)c(CNC(=O)c2cnn(Cc3ccc4c(c3)CN(C)CC4)c2)c1F` [Example 3, N-{[2-fluoro-3-methoxy-6-(4-methyl-1,2,3-triazol-1-yl)phenyl]methyl}-1-[(2-methyl-3,4-dihydro-1H-isoquinolin-7-yl)methyl]pyrazole-4-carboxamide], the IC50 in assay [1] is more than 40 µM; in assay [2], less than 10 nM; in assay [3], more than 40 µM.

In the case of `COCc1nn(Cc2ccc3c(c2)CCOC3)cc1C(=O)NCc1c(-n2cc(C)nn2)ccc(OC)c1F` [Example 68, 1-(3,4-dihydro-1H-2-benzopyran-6-ylmethyl)-N-{[2-fluoro-3-methoxy-6-(4-methyl-1,2,3-triazol-1-yl)phenyl]methyl}-3-(methoxymethyl)pyrazole-4-carboxamide], the half-maximal inhibitory concentration (IC50) was more than 40 µM in assay [1], 10 to 30 nM in assay [2] and more than 40 µM in assay [3].

As to `CCN1CCc2cc(Cn3cc(C(=O)NCc4c(-n5ccc(C#N)n5)ccc(OC)c4F)c(COC)n3)ccc2C1` [Example 52, N-{[6-(3-cyanopyrazol-1-yl)-2-fluoro-3-methoxyphenyl]methyl}-1-[(2-ethyl-3,4-dihydro-1H-isoquinolin-6-yl)methyl]-3-(methoxymethyl)pyrazole-4-carboxamide], the values for the IC50 in assay [1], in assay [2] and in assay [3] were more than 40 µM, less than 10 nM and more than 40 µM, respectively.
